Here are results for one compound from PMC11074101 (Cell Discovery, 2024).

SMILES strings stand for the structures.

A word on the Emax: it is the maximal effect, on the per cent scale that the assay sets. One may read the EC50 as the concentration that produces a half-maximal response. Higher therefore signals lower potency in that assay.

What all share (type): cell-based
The target of one assay is T1, MCHR1 WT (Homo sapiens, UniProt Q99705).
T1 construct: expressed in transfected cells; host or cells: HEK293
T1 sequence (Q99705 whole entry): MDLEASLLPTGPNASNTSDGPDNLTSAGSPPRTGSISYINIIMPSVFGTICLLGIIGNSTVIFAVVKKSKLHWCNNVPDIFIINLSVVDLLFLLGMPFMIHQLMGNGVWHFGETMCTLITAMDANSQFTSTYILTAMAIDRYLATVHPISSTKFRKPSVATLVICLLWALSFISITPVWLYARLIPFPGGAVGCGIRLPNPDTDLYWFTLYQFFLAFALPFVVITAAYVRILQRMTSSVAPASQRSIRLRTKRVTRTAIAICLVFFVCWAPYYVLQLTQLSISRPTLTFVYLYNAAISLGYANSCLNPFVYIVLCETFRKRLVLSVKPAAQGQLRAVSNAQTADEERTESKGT
Kind of assay: GloSensor cAMP assay, MCHR1 WT (Gαi). As to conditions: HEK293, GloSensor cAMP, normalized by WT receptor, mean ± S.E.M., n = 3 in triplicate. An excerpt:
(§1) The gene sequences encoding human MCHR1 (residues 70‒405) and MCHR2 (residues 1‒331, with L256^6.40Y mutation) were subcloned into pFastBac vector (Invitrogen) with an N-terminal haemagglutinin signal peptide (HA) and a thermostabilized BRIL fusion, followed by a C-terminal 15-amino acid linker, a LgBiT subunit and two MBPs to facilitate receptor expression and stability. The Gαi construct was designed with dominant-negative mutations S47N, G203A, A326S, and E245A to decrease the affinity of nucleotide-binding and stable Gαβγ complex. The mini-Gαq construct was designed with the C-terminal α-helix (αH5) of Gαq, which is critical for G protein coupling selectivity. The core of the construct, known as the Ras domain, is derived from Gαs. This design choice was made to enable the binding of the nanobody Nb35, which stabilizes the complex for cryo-EM analysis. […] Rat Gβ1 was constructed with a N-terminal 16× His-tag for purification and a C-terminal HiBiT to form a NanoBiT with LgBiT. […] The wild-type and mutants of MCHR1 and MCHR2 were constructed into the pcDNA6.0 vector […] for functional assays.
(§2) GloSensor cAMP assay was used to detect the downstream Gαi signal of MCHR1 using GloSensor cAMP Reagent (Promega).

The target of the next assay is T2, MCHR1 Q196(3.36)A (Homo sapiens, UniProt Q99705, Q127A).
T2 construct: expressed in transfected cells; host or cells: HEK293
T2 sequence (Q99705 whole entry Q127A): as the sequence (Q99705 whole entry) above, with Q127A counted along it
Kind of assay: GloSensor cAMP assay, MCHR1 Q196A. As to conditions: HEK293, mean ± S.E.M., n = 3 in triplicate.
Source text: as §1, §2

A further assay deals with T3, MCHR1 Y341(6.51)A (Homo sapiens, UniProt Q99705, Y272A).
T3 construct: expressed in transfected cells; host or cells: HEK293
T3 sequence (Q99705 whole entry Y272A): as the sequence (Q99705 whole entry) above, with Y272A counted along it
The assay can be described thus: GloSensor cAMP assay, MCHR1 Y341A. The note with it: HEK293, mean ± S.E.M., n = 3 in triplicate.
Source text: as §1, §2
Background: Changes in cAMP serve as a functional read-out for many G protein-coupled receptors.

The next assay concerns the target T4, MCHR1 Y362(7.35)A (Homo sapiens, UniProt Q99705, Y293A).
T4 construct: expressed in transfected cells; host or cells: HEK293
Kind of assay: GloSensor cAMP assay, MCHR1 Y362A. The note with it: HEK293, mean ± S.E.M., n = 3 in triplicate.
Source text: as §1, §2

For the next assay, the target named is T5, MCHR1 Y370(7.42)A (Homo sapiens, UniProt Q99705, Y301A).
T5 construct: expressed in transfected cells; host or cells: HEK293
T5 sequence (Q99705 whole entry Y301A): as the sequence (Q99705 whole entry) above, with Y301A counted along it
Kind of assay: GloSensor cAMP assay, MCHR1 Y370A. As to conditions: HEK293, mean ± S.E.M., n = 3 in triplicate. From the text:
(§3) The gene sequences encoding human MCHR1 (residues 70‒405) and MCHR2 (residues 1‒331, with L256^6.40Y mutation) were subcloned into pFastBac vector (Invitrogen) with an N-terminal haemagglutinin signal peptide (HA) and a thermostabilized BRIL fusion, followed by a C-terminal 15-amino acid linker, a LgBiT subunit and two MBPs to facilitate receptor expression and stability. The Gαi construct was designed with dominant-negative mutations S47N, G203A, A326S, and E245A to decrease the affinity of nucleotide-binding and stable Gαβγ complex. The mini-Gαq construct was designed with the C-terminal α-helix (αH5) of Gαq, which is critical for G protein coupling selectivity. The core of the construct, known as the Ras domain, is derived from Gαs. This design choice was made to enable the binding of the nanobody Nb35, which stabilizes the complex for cryo-EM analysis. […]
GloSensor cAMP assay was used to detect the downstream Gαi signal of MCHR1 using GloSensor cAMP Reagent (Promega). […] The sample mixtures were immediately measured with an EnVision multi-plate reader (PerkinElmer).
(§4) Concentration–response curves were evaluated with a three-parameter logistic equation. The significance was determined with one-way ANOVA with Tukey’s test, and P < 0.05 vs wild type was considered statistically significant.

Another assay deals with T6, MCHR2 W93(2.64)A (Homo sapiens, UniProt Q969V1, W93A).
T6 construct: expressed in transfected cells; host or cells: AD293
T6 sequence (Q969V1 whole entry W93A): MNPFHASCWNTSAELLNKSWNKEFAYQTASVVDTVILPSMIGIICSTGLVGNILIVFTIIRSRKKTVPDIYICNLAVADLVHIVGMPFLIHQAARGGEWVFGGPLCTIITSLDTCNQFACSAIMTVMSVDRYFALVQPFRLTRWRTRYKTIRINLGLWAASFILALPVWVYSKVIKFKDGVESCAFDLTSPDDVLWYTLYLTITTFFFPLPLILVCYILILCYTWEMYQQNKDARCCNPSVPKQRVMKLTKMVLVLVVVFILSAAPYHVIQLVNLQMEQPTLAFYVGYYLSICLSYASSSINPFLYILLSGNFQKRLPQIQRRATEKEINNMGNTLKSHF
The assay can be described thus: IP-One IP1 accumulation assay, MCHR2 W93A. As to conditions: n = 3 in triplicate.
Source text: as §3
(§5) IP1 accumulation assay was applied for the detection of the downstream Gαq signal of MCHR2 using the IP-One HTRF kit (Cisbio). […] Before measurement, the samples were incubated at RT for 30 min and measured with EnVision multi-plate reader (PerkinElmer).
as §4

In another assay the target is T7, MCHR2 F186(45.52)A (Homo sapiens, UniProt Q969V1, F186A).
T7 construct: expressed in transfected cells; host or cells: AD293
T7 sequence (Q969V1 whole entry F186A): as the sequence (Q969V1 whole entry W93A) above, with A93W, F186A counted along it
The assay can be described thus: IP-One IP1 accumulation assay, MCHR2 F186A. As to conditions: AD293, mean ± S.E.M., n = 3 in triplicate.
Source text: as §3, §5, §4

The next assay deals with T8, MCHR2 T198(5.39)A (Homo sapiens, UniProt Q969V1, T198A).
T8 construct: expressed in transfected cells; host or cells: AD293
T8 sequence (Q969V1 whole entry T198A): as the sequence (Q969V1 whole entry W93A) above, with A93W, T198A counted along it
The assay can be described thus: IP-One IP1 accumulation assay, MCHR2 T198A. As to conditions: n = 3 in triplicate.
Source text: as §3, §5, §4

The target of another assay is T9, MCHR2 Q271(6.55)A (Homo sapiens, UniProt Q969V1, Q271A).
T9 construct: expressed in transfected cells; host or cells: AD293
T9 sequence (Q969V1 whole entry Q271A): as the sequence (Q969V1 whole entry W93A) above, with A93W, Q271A counted along it
Kind of assay: IP-One IP1 accumulation assay, MCHR2 Q271A. As to conditions: n = 3 in triplicate.
Source text: as §3, §5, §4

The next assay concerns the target T10, MCHR2 S295(7.42)A (Homo sapiens, UniProt Q969V1, S295A).
T10 construct: expressed in transfected cells; host or cells: AD293
The assay can be described thus: IP-One IP1 accumulation assay, MCHR2 S295A. As to conditions: n = 3 in triplicate.
Source text: as §3, §5, §4

Setting [1] is: AD293, IP-One HTRF, 37 °C 1 h, mean ± S.E.M., P < 0.0001 vs WT.

T10 sequence (Q969V1 whole entry S295A): as the sequence (Q969V1 whole entry W93A) above, with A93W, S295A counted along it
T4 sequence (Q99705 whole entry Y293A): as the sequence (Q99705 whole entry) above, with Y293A counted along it

With `CSCC[C@@H]1NC(=O)[C@@H](NC(=O)[C@H](CCCNC(=N)N)NC(=O)[C@H](CC(C)C)NC(=O)[C@H](CCSC)NC(=O)[C@H](CC(=O)O)NC(=O)[C@H](Cc2ccccc2)NC(=O)[C@@H](N)CC(=O)O)CSSC[C@@H](C(=O)N[C@@H](Cc2c[nH]c3ccccc23)C(=O)N[C@@H](CCC(N)=O)C(=O)N[C@H](C(=O)O)C(C)C)NC(=O)[C@@H]2CCCN2C(=O)[C@H](CCCNC(=N)N)NC(=O)[C@H](Cc2ccc(O)cc2)NC(=O)[C@H](C(C)C)NC(=O)[C@H](CCCNC(=N)N)NC(=O)CNC(=O)[C@H](CC(C)C)NC1=O` [MCH, Melanin-concentrating hormone], the Emax was 100% at MCHR1 WT; 97 ± 1% at MCHR1 Q196(3.36)A; 97 ± 1% at MCHR1 Y341(6.51)A; 95% at MCHR1 Y362(7.35)A; -21 ± 4% at MCHR1 Y370(7.42)A; 91 ± 1% at MCHR2 W93(2.64)A (AD293, mean ± S.E.M.). For the same compound, the Emax on MCHR2 F186(45.52)A was determined as 98%; on MCHR2 T198(5.39)A (AD293, mean ± S.E.M.), 93 ± 2%; at MCHR2 Q271(6.55)A (AD293, mean ± S.E.M.), 101 ± 1%; on MCHR2 S295(7.42)A (AD293, mean ± S.E.M.), 81 ± 2%. Also, the EC50 on MCHR2 W93(2.64)A (setting [1]) is 6.03 µM; on MCHR2 T198(5.39)A (setting [1]) it was 69.2 nM; at MCHR2 Q271(6.55)A (setting [1]), 27.5 nM; on MCHR2 S295(7.42)A (setting [1]), 234 nM.
